Reference: a compilation of properties of binary mixtures (doi:10.1016/j.molliq.2016.11.074)

Assay: xn = mol fraction of the nth substance listed
Details: 100 kPa

O + CC[n+]1ccn(C)c1.CS(=O)(=O)[O-]
Details	electrical conductivity [S/m]
298.15 K, x1 = 1	0.0002

CC[n+]1ccn(C)c1.CS(=O)(=O)[O-] + O
Details	electrical conductivity [S/m]	speed of sound [m/s]
293.15 K, x2 = 0.0015	–	1779
293.15 K, x2 = 0.1905	–	1793
293.15 K, x2 = 0.3226	–	1808
293.15 K, x2 = 0.4301	–	1817
293.15 K, x2 = 0.619	–	1851
293.15 K, x2 = 0.7573	–	1853
293.15 K, x2 = 0.9048	–	1803
298.15 K, x1 = 0.0119	2.19	–
298.15 K, x2 = 0	0.45	1766
298.15 K, x2 = 0.191	0.707	–
298.15 K, x2 = 0.3226	–	1795
298.15 K, x2 = 0.3233	0.851	–
298.15 K, x2 = 0.5054	–	1818
298.15 K, x2 = 0.5057	1.24	–
298.15 K, x2 = 0.6206	–	1840
298.15 K, x2 = 0.7542	2.37	–
298.15 K, x2 = 0.7573	–	1846
298.15 K, x2 = 0.902	3.74	–
298.15 K, x2 = 0.9032	–	1791
298.15 K, x2 = 0.9651	3.87	–
303.15 K, x2 = 0	–	1753
303.15 K, x2 = 0.3241	–	1784
303.15 K, x2 = 0.427	–	1793
303.15 K, x2 = 0.5069	–	1807
303.15 K, x2 = 0.7542	–	1841
303.15 K, x2 = 0.9048	–	1779
303.15 K, x2 = 0.9662	–	1680
308.15 K, x2 = 0	–	1743
308.15 K, x2 = 0.192	–	1757
308.15 K, x2 = 0.3241	–	1771
308.15 K, x2 = 0.4286	–	1783
308.15 K, x2 = 0.5054	–	1795
308.15 K, x2 = 0.6206	–	1818
308.15 K, x2 = 0.7558	–	1838
308.15 K, x2 = 0.9032	–	1765
313.15 K, x2 = 0.192	–	1745
313.15 K, x2 = 0.3241	–	1760
313.15 K, x2 = 0.5084	–	1784
313.15 K, x2 = 0.6206	–	1808
313.15 K, x2 = 0.7558	–	1830
313.15 K, x2 = 0.9662	–	1668
